{"source": "ChEMBL document CHEMBL6121050", "about": "(J Med Chem, 2025)", "key": {"[1]": {"biological_target": "Protein cereblon/Eukaryotic peptide chain release factor GTP-binding subunit ERF3A (Homo sapiens, UniProt Q96SW2+P15170)", "sequence (P15170 whole entry, looked up)": "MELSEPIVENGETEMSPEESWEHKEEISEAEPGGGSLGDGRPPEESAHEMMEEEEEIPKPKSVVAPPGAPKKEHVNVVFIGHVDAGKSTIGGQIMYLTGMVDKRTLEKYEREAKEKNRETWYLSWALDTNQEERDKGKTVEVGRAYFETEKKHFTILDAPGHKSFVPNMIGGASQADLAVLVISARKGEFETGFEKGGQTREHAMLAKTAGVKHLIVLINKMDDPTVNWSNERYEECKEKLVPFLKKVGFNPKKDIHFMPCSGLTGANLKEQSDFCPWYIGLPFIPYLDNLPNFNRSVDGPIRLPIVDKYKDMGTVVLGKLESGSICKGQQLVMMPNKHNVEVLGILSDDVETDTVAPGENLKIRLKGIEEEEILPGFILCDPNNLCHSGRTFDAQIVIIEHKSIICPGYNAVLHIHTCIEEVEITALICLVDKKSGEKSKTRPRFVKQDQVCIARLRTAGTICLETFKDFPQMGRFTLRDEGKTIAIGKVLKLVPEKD", "sequence (Q96SW2 whole entry, looked up)": "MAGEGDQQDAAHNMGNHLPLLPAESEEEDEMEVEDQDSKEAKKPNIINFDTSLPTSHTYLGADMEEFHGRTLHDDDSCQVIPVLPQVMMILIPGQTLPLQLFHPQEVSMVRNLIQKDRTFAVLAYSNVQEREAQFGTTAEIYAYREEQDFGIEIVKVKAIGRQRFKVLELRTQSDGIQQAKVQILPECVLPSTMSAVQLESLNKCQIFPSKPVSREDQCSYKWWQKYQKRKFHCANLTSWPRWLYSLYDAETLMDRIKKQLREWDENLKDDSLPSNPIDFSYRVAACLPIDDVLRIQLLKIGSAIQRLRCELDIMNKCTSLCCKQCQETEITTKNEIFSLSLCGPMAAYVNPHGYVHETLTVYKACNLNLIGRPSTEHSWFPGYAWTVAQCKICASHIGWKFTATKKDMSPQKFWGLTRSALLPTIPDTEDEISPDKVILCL", "experiment": "PROTAC activity at CRBN/GSPT1 in human KG-1 cells assessed as induction of degradation of GSPT1 at 200 nM incubated for 4 hrs by immunoblot analysis relative to control", "assay_type": "cell-based"}, "KG-1": {"system": "KG-1", "experiment": "Antiproliferative activity against human KG-1 cells assessed as reduction in cell viability measured after 72 hrs by CCK-8 method", "assay_type": "functional, cell-based", "settings": "KG-1, 72 h"}, "[2]": {"experiment": "Metabolic stability in rat liver microsomes assessed as half life", "assay_type": "ADME, Microsome", "settings": "liver microsomes"}, "[3]": {"experiment": "Metabolic stability in rat liver microsomes assessed as clearance", "assay_type": "ADME, Microsome", "settings": "liver microsomes, read-out: CLH"}, "[4]": {"experiment": "Clearance in Sprague-Dawley rat at 2 mg/kg, iv", "assay_type": "ADME, organism-based", "settings": "in vivo"}, "[5]": {"experiment": "Half life in Sprague-Dawley rat at 2 mg/kg, iv", "assay_type": "ADME, organism-based", "settings": "in vivo"}, "[6]": {"experiment": "AUC infinity in Sprague-Dawley rat at 2 mg/kg, iv", "assay_type": "ADME, organism-based", "settings": "Sprague-Dawley, in vivo"}, "[7]": {"experiment": "Half life in Sprague-Dawley rat at 10 mg/kg, po", "assay_type": "ADME, organism-based", "settings": "in vivo"}, "[8]": {"experiment": "Cmax in Sprague-Dawley rat at 10 mg/kg, po", "assay_type": "ADME, organism-based", "settings": "in vivo"}, "[9]": {"experiment": "Tmax in Sprague-Dawley rat at 10 mg/kg, po", "assay_type": "ADME, organism-based", "settings": "in vivo"}, "[10]": {"experiment": "AUC infinity in Sprague-Dawley rat at 10 mg/kg, po", "assay_type": "ADME, organism-based", "settings": "in vivo"}, "[11]": {"experiment": "Oral bioavailability in Sprague-Dawley rat at 10 mg/kg", "assay_type": "ADME, organism-based", "settings": "in vivo"}, "[12]": {"experiment": "C0 in Sprague-Dawley rat at 2 mg/kg, iv", "assay_type": "ADME, organism-based", "settings": "in vivo"}, "[13]": {"experiment": "AUC last in Sprague-Dawley rat at 2 mg/kg, iv", "assay_type": "ADME, organism-based", "settings": "in vivo"}, "[14]": {"experiment": "Observed MRT infinity in Sprague-Dawley rat at 2 mg/kg, iv", "assay_type": "ADME, organism-based", "settings": "in vivo"}, "[15]": {"experiment": "Observed volume of distribution at steady state in Sprague-Dawley rat at 2 mg/kg, iv", "assay_type": "ADME, organism-based", "settings": "in vivo, read-out: Vdss"}, "[16]": {"experiment": "AUC last in Sprague-Dawley rat at 10 mg/kg, po", "assay_type": "ADME, organism-based", "settings": "in vivo"}, "[17]": {"experiment": "Observed MRT infinity in Sprague-Dawley rat at 10 mg/kg, po", "assay_type": "ADME, organism-based", "settings": "in vivo"}}, "data": [{"smiles": "O=C1CCC(N2Cc3cc(CNC(=O)C4=Cc5cccc(F)c5OC4)ccc3C2=O)C(=O)N1", "note": "(stereo not given)", "values": [{"measurement": "Activity", "setting": "[1]", "value": 97.5, "unit": "%"}, {"measurement": "IC50", "setting": "KG-1", "value": 2.54, "unit": "nM"}, {"measurement": "half-life", "setting": "[2]", "value": 5.19, "unit": "h"}, {"measurement": "microsomal CLint", "setting": "[3]", "value": 4.45, "unit": "µL/min/mg"}, {"measurement": "clearance", "setting": "[4]", "value": 8.6, "unit": "mL/min/kg"}, {"measurement": "half-life", "setting": "[5]", "value": 1.73, "unit": "h"}, {"measurement": "AUC(0-inf)", "setting": "[6]", "value": 3990, "unit": "ng·h/mL"}, {"measurement": "half-life", "setting": "[7]", "value": 4.1, "unit": "h"}, {"measurement": "Cmax", "setting": "[8]", "value": 283, "unit": "ng/mL"}, {"measurement": "Tmax", "setting": "[9]", "value": 1.67, "unit": "h"}, {"measurement": "AUC(0-inf)", "setting": "[10]", "value": 2290, "unit": "ng·h/mL"}, {"measurement": "bioavailability", "setting": "[11]", "value": 11.5, "unit": "%"}]}, {"smiles": "CO/N=C(\\Cc1ccc(C)c(Cl)c1)C(=O)NCc1ccc2c(c1)CN(C1CCC(=O)NC1=O)C2=O", "note": "(stereo not given)", "values": [{"measurement": "Activity", "setting": "[1]", "value": 92.4, "unit": "%"}, {"measurement": "IC50", "setting": "KG-1", "value": 4.65, "unit": "nM"}, {"measurement": "half-life", "setting": "[2]", "value": 0.0407, "unit": "h"}, {"measurement": "microsomal CLint", "setting": "[3]", "value": 564, "unit": "µL/min/mg"}, {"measurement": "clearance", "setting": "[4]", "value": 42.4, "unit": "mL/min/kg"}, {"measurement": "half-life", "setting": "[5]", "value": 1.52, "unit": "h"}, {"measurement": "C0", "setting": "[12]", "value": 2180, "unit": "ng/mL"}, {"measurement": "AUC(0-t)", "setting": "[13]", "value": 802, "unit": "ng·h/mL"}, {"measurement": "AUC(0-inf)", "setting": "[6]", "value": 804, "unit": "ng·h/mL"}, {"measurement": "MRT inf", "setting": "[14]", "value": 0.53, "unit": "h"}, {"measurement": "Vd", "setting": "[15]", "value": 1.34, "unit": "L/kg"}, {"measurement": "half-life", "setting": "[7]", "value": 1.32, "unit": "h"}, {"measurement": "Cmax", "setting": "[8]", "value": 1090, "unit": "ng/mL"}, {"measurement": "Tmax", "setting": "[9]", "value": 0.42, "unit": "h"}, {"measurement": "AUC(0-t)", "setting": "[16]", "value": 1100, "unit": "ng·h/mL"}, {"measurement": "AUC(0-inf)", "setting": "[10]", "value": 1110, "unit": "ng·h/mL"}, {"measurement": "MRT inf", "setting": "[17]", "value": 1.32, "unit": "h"}, {"measurement": "bioavailability", "setting": "[11]", "value": 27.6, "unit": "%"}]}, {"smiles": "O=C1CCC(N2Cc3cc(CNC(=O)/C(Cc4ccc([N+](=O)[O-])cc4)=N/O)ccc3C2=O)C(=O)N1", "note": "(stereo not given)", "values": [{"measurement": "Activity", "setting": "[1]", "value": -34.9, "unit": "%"}]}, {"smiles": "Cc1cccc2c1C=C(C(=O)NCc1ccc3c(c1)CN(C1CCC(=O)NC1=O)C3=O)CO2", "note": "(stereo not given)", "values": [{"measurement": "Activity", "setting": "[1]", "value": 89.6, "unit": "%"}]}, {"smiles": "Cc1cccc2c1OCC(C(=O)NCc1ccc3c(c1)CN(C1CCC(=O)NC1=O)C3=O)=C2", "note": "(stereo not given)", "values": [{"measurement": "Activity", "setting": "[1]", "value": 93.4, "unit": "%"}, {"measurement": "IC50", "setting": "KG-1", "value": 3.64, "unit": "nM"}, {"measurement": "half-life", "setting": "[2]", "value": 0.671, "unit": "h"}, {"measurement": "microsomal CLint", "setting": "[3]", "value": 34.4, "unit": "µL/min/mg"}]}, {"smiles": "O=C1CCC(N2Cc3cc(CNC(=O)/C(Cc4ccc(F)cc4)=N/O)ccc3C2=O)C(=O)N1", "note": "(stereo not given)", "values": [{"measurement": "Activity", "setting": "[1]", "value": 82.6, "unit": "%"}]}, {"smiles": "O=C1CCC(N2Cc3cc(CNC(=O)c4c[nH]c5ccccc5c4=O)ccc3C2=O)C(=O)N1", "note": "(stereo not given)", "values": [{"measurement": "Activity", "setting": "[1]", "value": 23.1, "unit": "%"}]}, {"smiles": "O=C1CCC(N2Cc3cc(CNC(=O)c4coc5ccccc5c4=O)ccc3C2=O)C(=O)N1", "note": "(stereo not given)", "values": [{"measurement": "Activity", "setting": "[1]", "value": 55, "unit": "%"}]}, {"smiles": "COc1cccc2c1OCC(C(=O)NCc1ccc3c(c1)CN(C1CCC(=O)NC1=O)C3=O)=C2", "note": "(stereo not given)", "values": [{"measurement": "Activity", "setting": "[1]", "value": 89, "unit": "%"}, {"measurement": "IC50", "setting": "KG-1", "value": 2.14, "unit": "nM"}, {"measurement": "half-life", "setting": "[2]", "value": 3.53, "unit": "h"}, {"measurement": "microsomal CLint", "setting": "[3]", "value": 6.55, "unit": "µL/min/mg"}, {"measurement": "clearance", "setting": "[4]", "value": 11.3, "unit": "mL/min/kg"}, {"measurement": "half-life", "setting": "[5]", "value": 2.02, "unit": "h"}, {"measurement": "AUC(0-inf)", "setting": "[6]", "value": 3590, "unit": "ng·h/mL"}, {"measurement": "half-life", "setting": "[7]", "value": 5.65, "unit": "h"}, {"measurement": "Cmax", "setting": "[8]", "value": 359, "unit": "ng/mL"}, {"measurement": "Tmax", "setting": "[9]", "value": 2.67, "unit": "h"}, {"measurement": "AUC(0-inf)", "setting": "[10]", "value": 3340, "unit": "ng·h/mL"}, {"measurement": "bioavailability", "setting": "[11]", "value": 18.6, "unit": "%"}]}, {"smiles": "O=C1CCC(N2Cc3cc(CNC(=O)C4=Cc5c(F)cccc5OC4)ccc3C2=O)C(=O)N1", "note": "(stereo not given)", "values": [{"measurement": "Activity", "setting": "[1]", "value": 76.1, "unit": "%"}]}, {"smiles": "O=C1CCC(N2Cc3cc(CNC(=O)/C(Cc4ccc(Br)cc4)=N/O)ccc3C2=O)C(=O)N1", "note": "(stereo not given)", "values": [{"measurement": "Activity", "setting": "[1]", "value": 68.5, "unit": "%"}]}, {"smiles": "O=C1CCC(N2Cc3cc(CNC(=O)C4=Cc5cc(F)cc(F)c5OC4)ccc3C2=O)C(=O)N1", "note": "(stereo not given)", "values": [{"measurement": "Activity", "setting": "[1]", "value": 75.2, "unit": "%"}]}, {"smiles": "O=C1CCC(N2Cc3cc(CNC(=O)C4=Cc5cc(F)ccc5OC4)ccc3C2=O)C(=O)N1", "note": "(stereo not given)", "values": [{"measurement": "Activity", "setting": "[1]", "value": 53.8, "unit": "%"}]}, {"smiles": "O=C1CCC(N2Cc3cc(CNC(=O)/C(Cc4ccc(N5CCOCC5)cc4)=N/O)ccc3C2=O)C(=O)N1", "note": "(stereo not given)", "values": [{"measurement": "Activity", "setting": "[1]", "value": 34.4, "unit": "%"}]}, {"smiles": "Cc1ccc(C/C(=N\\N)C(=O)NCc2ccc3c(c2)CN(C2CCC(=O)NC2=O)C3=O)cc1Cl", "note": "(stereo not given)", "values": [{"measurement": "Activity", "setting": "[1]", "value": 82.2, "unit": "%"}, {"measurement": "IC50", "setting": "KG-1", "value": 6.19, "unit": "nM"}]}, {"smiles": "Cc1cc2c(cc1Cl)C=C(C(=O)NCc1ccc3c(c1)CN(C1CCC(=O)NC1=O)C3=O)CO2", "note": "(stereo not given)", "values": [{"measurement": "Activity", "setting": "[1]", "value": 72.8, "unit": "%"}]}, {"smiles": "O=C1CCC(N2Cc3cc(CNC(=O)C4=Cc5ccccc5OC4)ccc3C2=O)C(=O)N1", "note": "(stereo not given)", "values": [{"measurement": "Activity", "setting": "[1]", "value": 72.1, "unit": "%"}, {"measurement": "bioavailability", "setting": "[11]", "value": 19.3, "unit": "%"}]}, {"smiles": "O=C1CCC(N2Cc3cc(CNC(=O)c4coc5ccccc45)ccc3C2=O)C(=O)N1", "note": "(stereo not given)", "values": [{"measurement": "Activity", "setting": "[1]", "value": 82.2, "unit": "%"}, {"measurement": "IC50", "setting": "KG-1", "value": 18.9, "unit": "nM"}]}, {"smiles": "CC(C)(C)c1ccc2c(c1)C=C(C(=O)NCc1ccc3c(c1)CN(C1CCC(=O)NC1=O)C3=O)CO2", "note": "(stereo not given)", "values": [{"measurement": "Activity", "setting": "[1]", "value": 90.3, "unit": "%"}, {"measurement": "IC50", "setting": "KG-1", "value": 0.6, "unit": "nM"}, {"measurement": "half-life", "setting": "[2]", "value": 0.329, "unit": "h"}, {"measurement": "microsomal CLint", "setting": "[3]", "value": 70.2, "unit": "µL/min/mg"}]}, {"smiles": "COc1ccc2c(c1)C=C(C(=O)NCc1ccc3c(c1)CN(C1CCC(=O)NC1=O)C3=O)CO2", "note": "(stereo not given)", "values": [{"measurement": "Activity", "setting": "[1]", "value": 76.8, "unit": "%"}]}, {"smiles": "NC(Cc1ccc(F)cc1)C(=O)NCc1ccc2c(c1)CN(C1CCC(=O)NC1=O)C2=O", "note": "(stereo not given)", "values": [{"measurement": "Activity", "setting": "[1]", "value": 27.1, "unit": "%"}]}, {"smiles": "O=C1CCC(N2Cc3cc(CNC(=O)C4=Cc5cc(Br)ccc5OC4)ccc3C2=O)C(=O)N1", "note": "(stereo not given)", "values": [{"measurement": "Activity", "setting": "[1]", "value": 79.9, "unit": "%"}]}]}
